The conditions of series [1]: no reference given; cited from earlier work.
Series [2] relates to MDCK-MDR1 cells. As to conditions: MDCK-MDR1, pH 7.4.
Series [3] deals with MDCK-MDR1 cells. The settings on record: cited from earlier work.
The conditions of series [4]: determined 25 °C; etoposide acidic, acebutolol basic; ref Avdeef, 2012; cited from earlier work.
A short description of series [5]: Calculation of neutral fraction (fn).
Series [6] concerns MDCK-II-MDR1 cells. As to conditions: intrinsic membrane permeability, calculated from Papp, A⟶B with elacridar.
Method: Briefly, cells (passage 20–40) were seeded onto 12-well PET inserts (CellQART, Northeim, Germany; pore size: 0.4 μm; filter thickness: 11.5 μm, 100×10^6 pores/cm^2) at a density of 1.5×10^5 cells/insert. […] One day before the experiments, the cell medium was refreshed. For P0 determination, inserts were pre-incubated with the P-gp inhibitor elacridar (2 μM) for 30 min in HBSS pH 7.4. The transport rates in both directions of the test compounds were determined in duplicate or triplicate for 4–5 different pH values between pH 5 and pH 9. The transport buffer was HBSS buffered with 10 mM MES for pH 5 and 6, 25 mM HEPES for pH 7, 7.4 and 8, and 10 mM TAPS for pH 9. Stock solutions were prepared in the transport buffer and pre-warmed to 37 °C. Additional stock solutions with 2 μM elacridar were prepared at suitable pH values to measure P0 values in tandem. The pH of all buffer and stock solutions, as well as the pH of all samples after experiment completion, was controlled with a rapid pH automated pH meter (Hudson Robotics, Inc., Springfield, NJ, USA). Inserts were used in 12-well plates (TPP Techno Plastic Products AG, Trasadingen, Switzerland). […] Timestep length was determined individually for each compound and direction measured to ensure sink conditions. […]
to ensure that measured transport rates would not be affected by active efflux .
Series [7] relates to MDCK-II-MDR1 cells.
A short description of a further series: in vitro. The settings on record: dog.
In series [8] the test system is P-gp (MDR1). The series is described as follows: in vitro. The settings on record: dog.
The test system of series [9] is P-gp (MDR1). Kind of series: in vitro. As to conditions: dog, MDCK-MDR1, Papp, B⟶A.

The structures appear in SMILES notation. Where two headings read alike, the source gives them in different places.

This is an account of results in PMC11637191, “The pH-dependence of efflux ratios determined with bidirectional transport assays across cellular monolayers” (International Journal of Pharmaceutics: X, 2024).

For orientation: pKa means the pH at which an ionisable group is half protonated. One may read the Papp as the rate of passage across a membrane or cell layer, normalised by area and donor concentration. A high value points to ready permeation. By Papp B→A is commonly meant the apparent permeability from the basolateral to the apical side of a cell layer. One may read the efflux ratio as a quotient of directional permeabilities that is used to spot active efflux.

For the compound `COc1ccc2c(c1)c(CC(=O)O)c(C)n2C(=O)c1ccc(Cl)cc1` [Indomethacin], the logKhex/water in series [1] is given as 0.58.

As for `CC[C@@H](CO)NC(=O)[C@@H]1C=C2c3cccc4c3c(cn4C)C[C@H]2N(C)C1` [Methysergide], in the series on MDCK-MDR1 cells [2] (dog), the Factor difference came to 2. Further, in the series on MDCK-MDR1 cells [3] (MDCK-MDR1, pH 7.4), the “Papp, B⟶A” value was 75.3 and the “Papp, inhibitor” value is 39.4.

In the series on MDCK-MDR1 cells [2], `CC(C)N(CCC(c1ccccc1)c1cc(CO)ccc1O)C(C)C` (centres unmarked) [5-Hydroxymethyl Tolterodine] came in with a Factor difference of 6. For the same compound, in the series with MDCK-MDR1 cells [3] (MDCK-MDR1, pH 7.4), the “Papp, B⟶A” value was 6.3e-05 cm/s and the “Papp, inhibitor” value is 1.1e-05 cm/s.

With `COc1cc([C@@H]2c3cc4c(cc3[C@@H](O[C@@H]3O[C@@H]5CO[C@@H](C)O[C@H]5[C@H](O)[C@H]3O)[C@H]3COC(=O)[C@H]23)OCO4)cc(OC)c1O` [Etoposide], the pKa in [4] is 8.53. The “Papp, inhibitor” value in the series with MDCK-MDR1 cells [3] (with inhibitor, pH 7.4 iso-method, ref Troutman and Thakker (2003)) was 6.6e-07 cm/s; with MDCK-MDR1 cells [3] (with inhibitor, pH 7.4 iso-method, ref Wang et al. (2005)), 3e-07 cm/s. Besides, the “Papp, B⟶A” value with MDCK-MDR1 cells [3] (without inhibitor, pH 7.4 iso-method, ref Troutman and Thakker (2003)) was 1.04e-05 cm/s; with MDCK-MDR1 cells [3] (without inhibitor, pH 7.4 iso-method, ref Wang et al. (2005)) it was 1.8e-06 cm/s. For the same compound, the fn in [5] (neutral fraction at pH 7.4) was 84%. Also, the LogP0 in the series with MDCK-II-MDR1 cells [6] is on record as -6.3 P in cm/s. For the same compound, the “logPapp, A⟶B” value in the series on MDCK-II-MDR1 cells [7] (pH 6, iso-pH method) is listed as -6.93 P in cm/s; in the series on MDCK-II-MDR1 cells [7] (pH 7.4, iso-pH method) it was -6.97 P in cm/s; in the series on MDCK-II-MDR1 cells [7] (pH 8, iso-pH method), -6.86 P in cm/s; in the series with MDCK-II-MDR1 cells [7] (pH 9, iso-pH method), -6.71 P in cm/s. Also, the “logPapp, B⟶A” value in the series on MDCK-II-MDR1 cells [7] (pH 6, iso-pH method) is listed as -5.50 P in cm/s; with MDCK-II-MDR1 cells [7] (pH 7.4, iso-pH method) it was -5.39 P in cm/s; in the series with MDCK-II-MDR1 cells [7] (pH 8, iso-pH method), -5.55 P in cm/s; with MDCK-II-MDR1 cells [7] (pH 9, iso-pH method) it was -6.37 P in cm/s. The recovery in “in vitro” (MDCK-MDR1, pH 6) was in the range of 92 to 97%; in the series “in vitro” (MDCK-MDR1, pH 7.4), 98 to 108%; in the series “in vitro” (MDCK-MDR1, pH 8), 83 to 98%; in the series “in vitro” (MDCK-MDR1, pH 9) it was 60 to 71%. Also, the Papp was 0.12 ± 0.02 ×10⁻⁶ cm/s in the series on P-gp (MDR1) [8] (MDCK-MDR1, pH 6); 0.11 ± 0.02 ×10⁻⁶ cm/s with P-gp (MDR1) [8] (MDCK-MDR1, pH 7.4); 0.14 ± 0.04 ×10⁻⁶ cm/s in the series with P-gp (MDR1) [8] (MDCK-MDR1, pH 8); 0.19 ± 0.08 ×10⁻⁶ cm/s in the series on P-gp (MDR1) [8] (MDCK-MDR1, pH 9). The Papp B→A in the series on P-gp (MDR1) [8] (MDCK-MDR1, pH 6) is 3.16 ± 0.19 ×10⁻⁶ cm/s; with P-gp (MDR1) [8] (MDCK-MDR1, pH 7.4), 4.05 ± 1.18 ×10⁻⁶ cm/s; in the series with P-gp (MDR1) [8] (MDCK-MDR1, pH 8), 2.8 ± 0.08 ×10⁻⁶ cm/s; with P-gp (MDR1) [8] (MDCK-MDR1, pH 9), 0.43 ± 0.03 ×10⁻⁶ cm/s. In addition, the efflux ratio in the series on P-gp (MDR1) [8] (MDCK-MDR1, pH 6) is 26.8; in the series on P-gp (MDR1) [8] (MDCK-MDR1, pH 7.4) it was 37.6; in the series on P-gp (MDR1) [8] (MDCK-MDR1, pH 8), 20.2; in the series on P-gp (MDR1) [8] (MDCK-MDR1, pH 9) it was 2.2.

In the series with MDCK-MDR1 cells [2] (dog), `COc1cc2c(c(OC)c1OC)-c1ccc(OC)c(=O)cc1[C@@H](NC(C)=O)CC2` [Colchicine] showed a Factor difference of 7. In the series on MDCK-MDR1 cells [3] (MDCK-MDR1, pH 7.4), the “Papp, B⟶A” value was 1.19e-05 cm/s. For the same compound, the “Papp, inhibitor” value in the series on MDCK-MDR1 cells [3] (MDCK-MDR1, pH 7.4) was 1.64e-06 cm/s. For the same compound, the fn in series [5] (neutral fraction at pH 8) is listed as 100%. Also, in the series on MDCK-II-MDR1 cells [6], the LogP0 is listed as -5.9 P in cm/s. Further, the recovery was 100 to 120% in the series “in vitro” (MDCK-MDR1, pH 5); 78 to 109% in “in vitro” (MDCK-MDR1, pH 6); 98 to 110% in “in vitro” (MDCK-MDR1, pH 7); 96 to 102% in the series “in vitro” (MDCK-MDR1, pH 8); 92 to 100% in the series “in vitro” (MDCK-MDR1, pH 9). Also, the Papp stood at 0.52 ± 0.15 ×10⁻⁶ cm/s in the series with P-gp (MDR1) [8] (MDCK-MDR1, pH 5); 0.2 ± 0.04 ×10⁻⁶ cm/s in the series on P-gp (MDR1) [8] (MDCK-MDR1, pH 6); 0.16 ± 0.04 ×10⁻⁶ cm/s in the series on P-gp (MDR1) [8] (MDCK-MDR1, pH 7); 0.2 ± 0.05 ×10⁻⁶ cm/s in the series on P-gp (MDR1) [8] (MDCK-MDR1, pH 8); 0.41 ± 0.06 ×10⁻⁶ cm/s in the series with P-gp (MDR1) [8] (MDCK-MDR1, pH 9); 6.33 ×10⁻⁶ cm/s with P-gp (MDR1) [9]. Moreover, the Papp B→A with P-gp (MDR1) [8] (MDCK-MDR1, pH 5) turned out to be 2.12 ± 0.14 ×10⁻⁶ cm/s; in the series on P-gp (MDR1) [8] (MDCK-MDR1, pH 6) it was 4.42 ± 0.33 ×10⁻⁶ cm/s; in the series on P-gp (MDR1) [8] (MDCK-MDR1, pH 7), 5.03 ± 0.58 ×10⁻⁶ cm/s; with P-gp (MDR1) [8] (MDCK-MDR1, pH 8), 6.33 ± 0.62 ×10⁻⁶ cm/s; in the series on P-gp (MDR1) [8] (MDCK-MDR1, pH 9) it was 5.89 ± 1.14 ×10⁻⁶ cm/s.
